The test system of data set [1] is mortality induced by histamine. Kind of data set: Effect on the mortality induced by histamine. The class given is in vivo, male albino guinea pigs (Dunkin-Hartley). To be noted: Cavia porcellus, po; guinea pigs, os, 60 minutes before 1,25 mg/kg i.v. histamine dihydrochloride; parentheses: range. Here is the method:
The method described by Romer D. et al. (Med.Welt, 17, 791, 1966) was followed and the tests were carried out on male albino guinea pigs (Dunkin-Hartley), weighing 350-450 g, which were kept in cages with a grid floor, on an empty stomach for 24 hrs with water ad libitum.
The compounds under examination were dissolved in 0,5% carboxymethylcellolose and orally administered to the animals; 60 minutes later the same animals were intravenously treated with 1,25 mg/kg of histamine dihydrochloride in saline solution.
It was evaluated ED50 which corresponds to the amount of the compound able to inhibit 50% of the mortality induced by histamine: the estimation of ED50 was carried out applying the `probit` method (Finney D. J., Statistical methods in biological assay, pg 512, 1957).

Data set [2] has as its target T1, H1 histaminergic receptors (Rattus norvegicus, UniProt P31390).
T1 construct: in homogenates of rat brain; from tissue; host or cells: rat whole brain homogenate
The data set can be described thus: Affinity towards H1 histaminergic receptors ([3H]Mepyramine displacement). The note with it: homogenates of rat brain, 25° C., 15 minutes, pH 7.5, read-out: H1-receptor binding Ki. Here is the method:
The incubation was performed at 25° C. for 15 minutes, in a final volume of 1 ml of 50 mM Na/K phosphate buffer, pH 7.5, in the presence of […][^3 H]Mepyramine and 1.5 mg of cerebral protein.
The test compounds were dissolved in phosphate buffer or dimethylsulfoxide (DMSO), the final concentration of DMSO was 0.5%. Incubation was terminated by filtration through glass fiber GF/B filters pre-soaked with 0.1% polyethylenimine (PEI); the radioactivity trapped by filters was counted by liquid scintillation.

The subject of data set [3] is sleeping time induced by sodium pentobarbital. Kind of data set: Effect on the sleeping time interval induced by pentobarbital. The class given is in vivo, male mice Swiss-Nos. Also on record: key: IN: inactive at the dose of 100 mg/kg i.p. To be noted: mice, i.p., 30 minutes before 40 mg/kg i.p. sodium pentobarbital; ED100 = doubles the sleeping time vs control. Here is the method:
The tests were carried out on male mice Swiss-Nos (Nossan, Correzzana, Milano) weighing 20-24 g, on an empty stomach for 18 hrs, according to the method described by Turner (Screening Methods in Pharmacology, Acad. Press, pg 70,1965). The sleep was induced by intraperitoneal administration of 40 mg/kg sodium pentobarbital. The narcosis start was considered from the moment when the animal, lying on its back, lost its straightening reflex. The narcosis end was considered from the moment when the animal recovered such reflex. The carrier or the compounds under examination were intraperitoneally administered 30 minutes before the pentobarbital administration. The resulting data are expressed as sleeping time increase per cent of the treated animals in comparison with the controls.

A further data set can be described thus: Acute toxicity (LD50). To be noted: mouse, in vivo, ip; mice, 14 days observation. Here is the method:
The Letal Dose50 (LD50) was evaluated on mice using Swiss-Nos (Nossan, Correzzana, Milano) mice weighing 18-20 g each. The animals, divided into groups of 10 animals each (5M +5F), were on an empty stomach for 18 hrs, with water ad libitum, and kept in cages with grid floor. The compounds (I) were dissolved in water or suspended in 0.5% carboxymethylcellulose and intraperitoneally administered to the animals (10 ml/kg). The mortality occured in the tested animals within the following 6 hours was noted down. At the expiry of the 6th hour, the animals were allowed to eat up to the end of the experimentation which lasted 14 days. During this period all the toxic symptoms and the mortality occuring were noted.
The animals which died during the test period and those which were sacrificed at the end of the same, underwent autopsy for a macroscopic examination of their main organs. The experimental data were statistically compared with the X^2 method and LD50 was extrapolated by the `probit` method.

T1 sequence (P31390 whole entry): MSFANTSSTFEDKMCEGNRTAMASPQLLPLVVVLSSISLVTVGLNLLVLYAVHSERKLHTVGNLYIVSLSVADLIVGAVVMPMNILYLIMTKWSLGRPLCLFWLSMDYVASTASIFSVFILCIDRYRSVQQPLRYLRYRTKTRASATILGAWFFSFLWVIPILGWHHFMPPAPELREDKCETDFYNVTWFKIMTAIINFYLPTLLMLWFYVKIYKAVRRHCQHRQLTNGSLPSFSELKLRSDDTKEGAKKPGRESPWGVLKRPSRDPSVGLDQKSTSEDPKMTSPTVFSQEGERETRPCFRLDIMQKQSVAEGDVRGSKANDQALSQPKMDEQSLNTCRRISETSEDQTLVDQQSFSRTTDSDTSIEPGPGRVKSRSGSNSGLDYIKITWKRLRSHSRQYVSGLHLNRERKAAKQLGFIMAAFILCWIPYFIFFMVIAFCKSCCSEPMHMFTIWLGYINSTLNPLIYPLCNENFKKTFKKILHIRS

Take `CCOCCn1c(CCN(C)C)nc2ccccc21` [Example 9, 1-(2-Ethoxyethyl)-2-(2-dimethylaminoethyl)benzimidazole]: the ED50 – broadly, the midpoint of the dose-response relation – in data set [1] came out at 0.00501 mg/kg. The Ki (in general, the dissociation constant of the complex between target and ligand, obtained from inhibition or displacement) in data set [2] is 6.1 nM. Also, the “sleeping time % increase ED100” value in data set [3] is “IN”. In addition, the LD50 (as a rule, the dose expected to kill half of the subjects tested) at 336 h in “Acute toxicity (LD50)” is > 100 mg/kg.
With `CC(C)(C)c1ccc(C(O)CCCN2CCC(C(O)(c3ccccc3)c3ccccc3)CC2)cc1` (centres unmarked) [Terfenadine, reference compound], the ED50 in data set [1] was found to be 0.179 mg/kg. Besides, the LD50 at 336 h in “Acute toxicity (LD50)” was > 100 mg/kg.
With `CCOCCn1c(CCCN(C)C)nc2ccccc21` [Example 1, 1-(2-Ethoxyethyl)-2-(3-dimethylaminopropyl)benzimidazole], in data set [1], the ED50 stood at 0.00454 mg/kg. Besides, the Ki in data set [2] turned out to be 5.8 nM. Besides, the “sleeping time % increase ED100” value in data set [3] is on record as “IN”. The LD50 at 336 h in “Acute toxicity (LD50)” was 250 mg/kg.
In the same order, the values of `CN(C)CCCc1nc2ccccc2n1Cc1ccc(F)cc1` [Example 6, 1-(4-fluorobenzyl)-2-(3-dimethylaminopropyl)benzimidazole] are 0.026 mg/kg, 6.1 nM, “IN” and > 100 mg/kg.
